In data set [1] the test system is painful stretchings. The data set can be described thus: Analgesic: painful stretchings following intraperitoneal injection of acetic acid. To be noted: po, mouse, read-out: Percentage diminution painful stretchings; for inhibition in vivo at 50 mg/kg: 50 mg/kg/p.o. The format is in vivo. The source says:
The compounds of formula (I), administered orally to a mouse, are capable of reducing the number of painful stretchings following intraperitioneal injection of acetic acid.

Data set [2] has as its system jejunal ansa of a rabbit. The experiment in a line: Spasmolytic in vivo: contractions of the jejunal ansa caused by electric stimulation. The source says: (§1) The compounds of formula (I), administered intraduodenally are capable of reducing the contractions of the jejunal ansa of a rabbit, caused by electric stimulation.
The nature of data set [3]: Acute toxicity, lethal dose 50. To be noted: mouse, in vivo, po, read-out: Lethal dose 50 (mouse) / DL 50 (mouse) (converted).
Data set [4] concerns stress ulcers. The experiment in a line: Anti-ulcerous properties: ulcerations in rat under stress for 7 hours, oral. To be noted: po; for inhibition in vivo at 7.7 mg/kg: 7.7 mg/kg/p.o.; for inhibition in vivo at 7.4 mg/kg: 7.4 mg/kg/p.o. The format is in vivo.
For data set [5], the system named is Shay's ulcer. The experiment in a line: Anti-ulcerous properties: ulceration caused by ligature of the pylorus (Shay's ulcers), intraduodenal. The data set is classed as in vivo. To be noted: rat, read-out: Percentage reduction of Shay's ulcer. The source says: Furthermore, the compounds of formula (I) administered intraduodenally reduce the ulceration area caused by ligature of the pylorus of a rat (Shay's ulcers).

Data set [6] deals with bronchoconstriction caused by acetylcholine. The data set can be described thus: Anticholinergic and antibronchoconstrictive: bronchoconstriction by intravenous acetylcholine, Konzett's method. The format is in vivo. To be noted: Cavia porcellus, guinea-pig, read-out: Percentage inhibition of the bronchoconstriction; for inhibition in vivo at 25 mg/kg: intraduodenal, i.d.; for inhibition in vivo at 4 mg/kg / inhibition in vivo at 5 mg/kg: iv, i.v. The source says:
Injected intravenously or intraduodenally, the compounds of formula (I) are capable of opposing bronchoconstriction caused in a guinea-pig by intravenous injection of acetylcholine and evaluated by Konzett's method.

Data set [7] has as its system gastric secretion. The experiment in a line: Gastric antisecretory properties: gastric secretion after Shay ligature, intraduodenal. The format is in vivo. To be noted: intraduodenal, rat, read-out: Reduction of volume of gastric secretion; for inhibition in vivo at 1.5 mg/kg: 1.5 mg/kg/i.d. An excerpt: Administered intraduodenally to a rat, the compounds of formula (I) are capable of reducing gastric secretion measured after Shay ligature.

Data set [8] deals with volume of urine emitted. The experiment in a line: Diuretic: volume of urine emitted. The data set is classed as in vivo. To be noted: po; rat, urine volume for 6 hours following administration; read-out: DE 50 (diuretic). Here is the method:
The compounds of formula (I), administered orally to a rat, increase the volume of urine emitted, relative to controls, the volume being measured for the 6 hours following administration.

Data set [9] relates to arterial pressure. The experiment in a line: Anti-hypertensive: arterial pressure in genetically hyperstressed vigil rats (S.H.R.). The format is in vivo, rat. To be noted: 4 hours. Here is the method:
The compounds of formula (I) are capable, 4 hours after their oral injection, of bringing the arterial pressure down to normal in genetically hyperstressed vigil rats (S.H.R.).

Data set [10] deals with sub-plantar oedema. The data set can be described thus: Anti-inflammatory: sub-plantar oedema caused by carragenine. The format is in vivo. To be noted: po, rat, read-out: Percentage reduction of sub-plantar oedema; for inhibition in vivo at 50 mg/kg: 50 mg/kg/p.o.
Data set [11] relates to uterine horn of a female rabbit. The experiment in a line: Spasmolytic in vivo: contractions of the uterine horn caused by electric stimulation. To be noted: 53 mg/kg/i.d. Here is the method:
as §1
The same test was studied with the uterine horn of a female rabbit.
For example, compound No 73.0442, administered at a dose of 53 mg/kg/i.d. reduces by 85 % for more than an hour, the contractions of the uterine horn of a female rabbit caused by electric stimulation.

Where [12] appears, read: read-out: Percentage reduction of stress ulcers.

Structures are written as SMILES. Some results are limits rather than exact numbers.

Take `O=C(CCn1c(CN2CCN(CC(=O)N3CCCCCC3)CC2)nc2ccccc21)c1ccccc1` [74 0195]: in [1], the inhibition in vivo at 50 mg/kg worked out at 53%. Moreover, the “Diminution of contractions of the jejunum of a rabbit” value in [2] (14.2 mg/kg/i.d.) was 30%. For the same compound, the LD50 in [3] was greater than 2000 mg/kg. The inhibition in vivo at 7.1 mg/kg in data set [4] (7.1 mg/kg/p.o., read-out: Percentage reduction of stress ulcers) was found to be 59%. Also, the inhibition in vivo at 14.2 mg/kg in data set [5] (14.2 mg/kg/i.d.) came to 86%. Moreover, the inhibition in vivo at 25 mg/kg in data set [6] was 60%.

`COc1ccccc1C(=O)CCn1c(CN2CCN(CC(=O)NC(C)C)CC2)nc2ccccc21` [75 0011]: the inhibition in vivo at 25 mg/kg in data set [7] (25 mg/kg/i.d.) came out at 75%. Moreover, the ED50 in [8] came out at 1 mg/kg. Further, the “arterial pressure brought down to normal” value in data set [9] (10 mg/kg/p.o.) is listed as 4 animals out of 7. Further, the LD50 in data set [3] is 120 mg/kg. For the same compound, in data set [4] (20 mg/kg/p.o., read-out: Percentage reduction of stress ulcers), the inhibition in vivo at 20 mg/kg was 51%. Also, the inhibition in vivo at 40 mg/kg in data set [5] (40 mg/kg/i.d.) came out at 78%.

With `C[N+]1(C)CCC(=C(c2ccccc2)c2ccccc2)CC1` [Diphemanil, diphemanil (methylsulfate), reference compound], the inhibition in vivo at 50 mg/kg in data set [7] (50 mg/kg/i.d.) amounted to 52%. For the same compound, in data set [2] (20 mg/kg/i.d.), the “Diminution of contractions of the jejunum of a rabbit” value is on record as 70%. For the same compound, in data set [3], the LD50 is 317 mg/kg. For the same compound, the inhibition in vivo at 100 mg/kg in data set [4] (100 mg/kg/p.o., ratio equal to 315, read-out: Percentage reduction of stress ulcers) turned out to be 91%.

Take `CCNC(=O)CN1CCN(Cc2nc3ccccc3n2CCC(=O)c2ccccc2)CC1` [74 0144]: the inhibition in vivo at 40 mg/kg in data set [1] (40 mg/kg/p.o.) was determined as 92%. In data set [7] (1.6 mg/kg/i.d.), the inhibition in vivo at 1.6 mg/kg was 85%. Moreover, the inhibition in vivo at 30 mg/kg in data set [10] (30 mg/kg/p.o.) is 35%. The “Diminution of contractions of the jejunum for more than an hour” value (from here on “Diminution … for more than an hour”) in data set [2] (15.5 mg/kg/i.d.) was determined as 43%. Further, the LD50 in [3] is 310 mg/kg. In data set [4] (setting [12]), the inhibition in vivo at 7.7 mg/kg stood at 99%. Besides, the inhibition in vivo at 15.5 mg/kg in [5] (15.5 mg/kg/i.d.) worked out at 98%. For the same compound, in data set [6], the inhibition in vivo at 4 mg/kg came to 100%.

Consider `CN(C)C(=O)CN1CCN(Cc2nc3ccccc3n2CCC(=O)c2ccccc2)CC1` [74 0180], for which the results for the inhibition in vivo at 50 mg/kg in data set [1] and in [10] were 53% and 47%, respectively. Further, the inhibition in vivo at 1.5 mg/kg in [7] was 86%. Also, the “Diminution … for more than an hour” value in data set [2] (15.4 mg/kg/i.d.) was determined as 50%. Besides, in data set [3], the LD50 is 716 mg/kg. For the same compound, the inhibition in vivo at 7.7 mg/kg turned out to be 100% in data set [4] (setting [12]) and 94% in data set [5] (7.7 mg/kg/i.d.). In addition, the inhibition in vivo at 5 mg/kg in data set [6] came to 100%.

For `CC(C)NC(=O)CN1CCN(Cc2nc3ccccc3n2CCC(=O)c2ccc([N+](=O)[O-])cc2)CC1` [74 0747], the “arterial pressure brought down to normal” value in data set [9] (150 mg/kg/p.o.) was 4 animals out of 7. Moreover, the LD50 in data set [3] was 2200 mg/kg.

As for `NC(=O)CN1CCN(Cc2nc3ccccc3n2CCC(=O)c2ccccc2)CC1` [75 0102], the inhibition in vivo at 10 mg/kg in [7] (10 mg/kg/i.d.) worked out at 91%; in data set [4] (10 mg/kg/p.o., read-out: Percentage reduction of stress ulcers), 100%; in data set [5] (10 mg/kg/i.d.) it was 74%. In data set [2] (25 mg/kg/i.d.), the “Diminution … for more than an hour” value is listed as 80%. In addition, the LD50 in data set [3] was 1300 mg/kg.

For the compound `CCN(CC)C(=O)CN1CCN(Cc2nc3ccccc3n2CCC(=O)c2ccccc2)CC1` [74 0184], the inhibition in vivo at 50 mg/kg in data set [1] came out at 63%; in data set [10] it was 65%. Further, the inhibition in vivo at 1.5 mg/kg in data set [7] amounted to 77%. The “Diminution … for more than an hour” value in [2] (14.9 mg/kg/i.d.) was 39%. For the same compound, in data set [3], the LD50 was 1300 mg/kg. Also, the inhibition in vivo at 7.4 mg/kg in data set [4] (setting [12]) and in data set [5] (7.4 mg/kg/i.d.) was 100% each time. The inhibition in vivo at 4 mg/kg in [6] was 100%.

Regarding `CC(C)NC(=O)CN1CCN(Cc2nc3ccccc3n2CCC(=O)c2ccccc2)CC1` [73 0442], the inhibition in vivo at 100 mg/kg in data set [1] (100 mg/kg/p.o.) is 80%. Further, in data set [7] (2.1 mg/kg/i.d.), the inhibition in vivo at 2.1 mg/kg was 68%. In [2] (26.5 mg/kg/i.d.), the “Diminution … for more than an hour” value is recorded as 67%. For the same compound, the LD50 in [3] was 798 mg/kg. The inhibition in vivo at 5.2 mg/kg in data set [4] (5.2 mg/kg/p.o., read-out: Percentage reduction of stress ulcers) came out at 99%. Besides, the “reduction of the contractions of the uterine horn for more than an hour” value in data set [11] worked out at 85%. In data set [5] (7.6 mg/kg/i.d.), the inhibition in vivo at 7.6 mg/kg worked out at 88%. For the same compound, the inhibition in vivo at 25 mg/kg in [6] was determined as 100%.

With `CC(C)CNC(=O)CN1CCN(Cc2nc3ccccc3n2CCC(=O)c2ccccc2)CC1` [74 0187], the inhibition in vivo at 50 mg/kg in data set [1] was found to be 42%; in [10] it was 47%. Besides, in [7], the inhibition in vivo at 1.5 mg/kg came to 78%. For the same compound, in data set [3], the LD50 was 1600 mg/kg. Further, the inhibition in vivo at 7.4 mg/kg in [4] (setting [12]) was 100%. The inhibition in vivo at 14.8 mg/kg in data set [5] (14.8 mg/kg/i.d.) turned out to be 94%. In addition, the inhibition in vivo at 5 mg/kg in [6] was 100%.

These data come from US4104384A, “1-(2'-Aroyl eth-1'yl) 2-(4"-acetamido piperazine-1"yl methyl) benzimidazoles and their therapeutical applications” (priority 1975, dated 1978).
